Laboratory results from PMC9709406 (Frontiers in Pharmacology, 2022).
Where “and” joins values, the source holds several entries; their conditions need not be identical. Equal entries are not always repeated.

How the values were obtained:
H1650 cells = experiment: MTT assay for cell proliferation and cytotoxicity, H1650; assay type: cell-based; settings: Homo sapiens, NCI-H1650, 48 h, H1650, n = 5
Text: (§1) The human cancer cells (H1650, H1975, KYSE70, KYSE410 and KYSE450) were purchased from the Type Culture Collection of the Chinese Academy of Sciences (Shanghai, China). The human immortalized normal esophageal epithelial cell line SHEE was donated by Dr. Enmin Li from the Laboratory of Tumor Pathology (Shantou University Medical College, Shantou, Guangdong, China). Drug-resistant cells (H1650TR, H1975OR, KYSE70TR, KYSE410TR and KYSE450TR) were induced by China-US (Henan) Hormel Cancer Institute. The cellswere cultured in RPMI-1640 complete growth medium containing 100 U/mL penicillin-streptomycin and 10% FBS. Based on the above medium formula, 100 nm/L paclitaxel was added in taxol-resistant cells, 100 nm/L gefitinib was added in gefitinib-resistant cells. The cells were incubated at 37 °C in an atmosphere containing 5% of CO2. The compounds were dissolved in DMSO to make a 50 mM stock solution and were diluted to the concentration of working solutions with complete growth medium before administration.
(§2) Cells were seeded in 96-well plates with 2,200–2,500 cells/well in100 μL. One day after seeding, test compounds with the concentration between 0 and 50 μM were added with 0.1% DMSO as control. Five multiple wells for each concentration. After 48 h, MTT was added and incubated in the plate for 1–4 h in the incubator. The absorbance at 490 nm was measured using a microplate reader (Thermo).

H1975 cells = experiment: MTT assay for cell proliferation and cytotoxicity, H1975; assay type: cell-based, human; settings: Homo sapiens, NCI-H1975, 48 h, MTT, 48 h, H1975, n = 5; read-out: IC50 48 h H1975
Text: as §1
as §2, with “After 48 h, MTT was added and incubated in the plate for 1–4 h in the incubator.” left out

SHEE cells = experiment: MTT assay, normal esophageal epithelial cell line SHEE; assay type: cell-based; settings: Homo sapiens, 48 h, n = 5
Text: as §1, §2

KYSE70 cells = experiment: MTT assay, KYSE70; assay type: cell-based, human; settings: for IC50: Homo sapiens, KYSE-70, MTT, 48 h, KYSE70, n = 5
Text: as §1, §2

KYSE410 cells = experiment: MTT assay, KYSE410; assay type: cell-based, human; settings: for IC50: Homo sapiens, KYSE-410, MTT, 48 h, KYSE410, n = 5, read-out: IC50 48 h KYSE410
Text: as §1, §2

KYSE450 cells = experiment: MTT assay, KYSE450; assay type: cell-based, human; settings: for IC50: Homo sapiens, KYSE-450, MTT, 48 h, KYSE450, n = 5, read-out: IC50 48 h KYSE450; for absorbance 490 nm, single well / mean absorbance 490 nm (row G) / mean absorbance 490 nm minus background (row H): KYSE450
Text: as §1, §2

[1] = concentration 12.5 (unit not given)
[2] = concentration 25 (unit not given)
[3] = concentration 50 (unit not given)
[4] = concentration 100 (unit not given)

Row | melting point [°C] | SMILES | IC50 (H1650 cells) [µM] | IC50 (H1975 cells) [µM] | IC50 (SHEE cells) [µM] | IC50 (KYSE70 cells) [µM] | blank-corrected absorbance 490 nm relative to control (fraction) (KYSE70 cells; KYSE70, concentration 12.5) | inhibition (1 minus fraction of control) (KYSE70 cells; KYSE70, concentration 12.5) | blank-corrected absorbance 490 nm relative to control (fraction) (KYSE70 cells; KYSE70, concentration 25) | inhibition (1 minus fraction of control) (KYSE70 cells; KYSE70, concentration 25) | blank-corrected absorbance 490 nm relative to control (fraction) (KYSE70 cells; KYSE70, concentration 50) | inhibition (1 minus fraction of control) (KYSE70 cells; KYSE70, concentration 50) | blank-corrected absorbance 490 nm relative to control (fraction) (KYSE70 cells; KYSE70, concentration 100) | inhibition (1 minus fraction of control) (KYSE70 cells; KYSE70, concentration 100) | IC50 (KYSE410 cells) [µM] | blank-corrected absorbance 490 nm relative to control (fraction) (KYSE410 cells; KYSE410, concentration 12.5) | inhibition (1 minus fraction of control) (KYSE410 cells; KYSE410, concentration 12.5) | blank-corrected absorbance 490 nm relative to control (fraction) (KYSE410 cells; KYSE410, concentration 25) | inhibition (1 minus fraction of control) (KYSE410 cells; KYSE410, concentration 25) | blank-corrected absorbance 490 nm relative to control (fraction) (KYSE410 cells; KYSE410, concentration 50) | IC50 (KYSE450 cells) [µM] | further results
1 | 146 to 149 | c1ccc(Cn2cc(-c3cccc(Nc4ncnc5cc6c(cc45)OCCOCCOCCO6)c3)nn2)cc1 [compound 3r] | 19.6 ± 1.72 | 19.2 ± 1.59 | 21 ± 1.11 | 7.32 ± 0.62 | 0.2722 | 0.7278 | 0.1457 | 0.8543 | 0.1803 | 0.8197 | 0.1267 | 0.8733 | 9.23 ± 0.97 | 0.3227 | 0.6773 | 0.3216 | 0.6784 | 0.3502 | 28.1 ± 1.18 | inhibition (1 minus fraction of control) (KYSE410 cells; KYSE410, concentration 50): 0.6498; blank-corrected absorbance 490 nm relative to control (fraction) (KYSE410 cells; KYSE410, concentration 100): 0.1592; inhibition (1 minus fraction of control) (KYSE410 cells; KYSE410, concentration 100): 0.8408; absorbance 490 nm, single well (KYSE450 cells; [1]): 0.6476 and 0.598 and 0.6398 and 0.6662; mean absorbance 490 nm (row G) (KYSE450 cells; [1]): 0.6379; mean absorbance 490 nm minus background (row H) (KYSE450 cells; [1]): 0.586; absorbance 490 nm, single well (KYSE450 cells; [2]): 0.4195 and 0.4416 and 0.4375 and 0.4182; mean absorbance 490 nm (row G) (KYSE450 cells; [2]): 0.4292; mean absorbance 490 nm minus background (row H) (KYSE450 cells; [2]): 0.3773; absorbance 490 nm, single well (KYSE450 cells; [3]): 0.1593 and 0.152 and 0.1434; mean absorbance 490 nm (row G) (KYSE450 cells; [3]): 0.1516; mean absorbance 490 nm minus background (row H) (KYSE450 cells; [3]): 0.09971; absorbance 490 nm, single well (KYSE450 cells; [4]): 0.127 and 0.1396 and 0.1367; mean absorbance 490 nm (row G) (KYSE450 cells; [4]): 0.1344; mean absorbance 490 nm minus background (row H) (KYSE450 cells; [4]): 0.08257
2 | 121 to 123 | Ic1ccccc1Cn1cc(-c2cccc(Nc3ncnc4cc5c(cc34)OCCOCCOCCO5)c2)nn1 [compound 3p] | 4.41 ± 0.31 | 39.5 ± 1.91 | > 50 | 19.9 ± 1.31 | – | – | – | – | – | – | – | – | > 50 | – | – | – | – | – | > 50 | –
3 | 114 to 117 | Cc1ccccc1Cn1cc(-c2cccc(Nc3ncnc4cc5c(cc34)OCCOCCOCCO5)c2)nn1 [compound 3n] | 17 ± 1.27 | 18.5 ± 1.43 | 8.05 ± 0.71 | 6.87 ± 0.51 | 0.09055 | 0.9094 | 0.002598 | 0.9974 | 0.03637 | 0.9636 | 0.0579 | 0.9421 | 8.23 ± 0.92 | 0.2414 | 0.7586 | 0.04668 | 0.9533 | 0.02603 | 13.4 ± 0.99 | inhibition (1 minus fraction of control) (KYSE410 cells; KYSE410, concentration 50): 0.974; blank-corrected absorbance 490 nm relative to control (fraction) (KYSE410 cells; KYSE410, concentration 100): 0.07058; inhibition (1 minus fraction of control) (KYSE410 cells; KYSE410, concentration 100): 0.9294; absorbance 490 nm, single well (KYSE450 cells; [1]): 0.3403 and 0.3956 and 0.3877; mean absorbance 490 nm (row G) (KYSE450 cells; [1]): 0.3745; mean absorbance 490 nm minus background (row H) (KYSE450 cells; [1]): 0.3163; absorbance 490 nm, single well (KYSE450 cells; [2]): 0.0581 and 0.0586 and 0.0622 and 0.0619; mean absorbance 490 nm (row G) (KYSE450 cells; [2]): 0.0602; mean absorbance 490 nm minus background (row H) (KYSE450 cells; [2]): 0.002; absorbance 490 nm, single well (KYSE450 cells; [3]): 0.062 and 0.0626 and 0.0677 and 0.0632; mean absorbance 490 nm (row G) (KYSE450 cells; [3]): 0.06374; mean absorbance 490 nm minus background (row H) (KYSE450 cells; [3]): 0.00554; absorbance 490 nm, single well (KYSE450 cells; [4]): 0.0608 and 0.061 and 0.0613 and 0.0611 and 0.0627; mean absorbance 490 nm (row G) (KYSE450 cells; [4]): 0.06138; mean absorbance 490 nm minus background (row H) (KYSE450 cells; [4]): 0.00318
4 | – | Clc1cccc(-n2cc(-c3cccc(Nc4ncnc5cc6c(cc45)OCCOCCOCCO6)c3)nn2)c1 [compound 3g] | 8.72 ± 0.73 | 4.75 ± 0.33 | 8.01 ± 0.77 | 6.13 ± 0.31 | – | – | – | – | – | – | – | – | 10.9 ± 0.99 | – | – | – | – | – | 4.51 ± 0.29 | –
